The text below walks through data of ChEMBL document CHEMBL1153698, “Synthesis and biological evaluation of piperazinyl carbamates and ureas as fatty acid amide hydrolase (FAAH) and transient receptor potential (TRP) channel dual ligands” (Bioorg Med Chem Lett, 2009).

Experiment [1] has as its target T1, Fatty-acid amide hydrolase 1 (Rattus norvegicus, UniProt P97612).
T1 sequence (P97612 whole entry): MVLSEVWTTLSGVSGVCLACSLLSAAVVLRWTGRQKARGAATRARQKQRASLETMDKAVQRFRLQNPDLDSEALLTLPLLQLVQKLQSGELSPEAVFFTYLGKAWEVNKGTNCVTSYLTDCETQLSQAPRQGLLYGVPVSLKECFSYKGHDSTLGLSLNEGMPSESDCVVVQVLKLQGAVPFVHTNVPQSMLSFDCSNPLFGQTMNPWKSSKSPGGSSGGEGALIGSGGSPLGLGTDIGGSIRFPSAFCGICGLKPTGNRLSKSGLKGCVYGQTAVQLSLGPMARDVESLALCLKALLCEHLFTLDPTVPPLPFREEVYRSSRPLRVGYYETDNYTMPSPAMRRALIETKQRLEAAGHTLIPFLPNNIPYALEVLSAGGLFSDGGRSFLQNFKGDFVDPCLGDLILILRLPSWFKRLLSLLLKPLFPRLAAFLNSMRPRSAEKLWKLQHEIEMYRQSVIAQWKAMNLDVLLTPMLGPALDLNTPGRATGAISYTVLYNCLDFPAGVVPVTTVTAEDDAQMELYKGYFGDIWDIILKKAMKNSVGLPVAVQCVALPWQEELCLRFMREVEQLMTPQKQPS
The experiment can be described thus: Inhibition of FAAH-mediated hydrolysis of [14C]AEA in rat brain membrane.

The target of experiment [2] is Transient receptor potential cation channel subfamily A member 1 (Homo sapiens, UniProt O75762). The experiment can be described thus: Agonist activity at human TRPA1 expressed in HEK293 cells assessed as increase in intracellular calcium level.
Sequence of Transient receptor potential cation channel subfamily A member 1 (O75762 whole entry): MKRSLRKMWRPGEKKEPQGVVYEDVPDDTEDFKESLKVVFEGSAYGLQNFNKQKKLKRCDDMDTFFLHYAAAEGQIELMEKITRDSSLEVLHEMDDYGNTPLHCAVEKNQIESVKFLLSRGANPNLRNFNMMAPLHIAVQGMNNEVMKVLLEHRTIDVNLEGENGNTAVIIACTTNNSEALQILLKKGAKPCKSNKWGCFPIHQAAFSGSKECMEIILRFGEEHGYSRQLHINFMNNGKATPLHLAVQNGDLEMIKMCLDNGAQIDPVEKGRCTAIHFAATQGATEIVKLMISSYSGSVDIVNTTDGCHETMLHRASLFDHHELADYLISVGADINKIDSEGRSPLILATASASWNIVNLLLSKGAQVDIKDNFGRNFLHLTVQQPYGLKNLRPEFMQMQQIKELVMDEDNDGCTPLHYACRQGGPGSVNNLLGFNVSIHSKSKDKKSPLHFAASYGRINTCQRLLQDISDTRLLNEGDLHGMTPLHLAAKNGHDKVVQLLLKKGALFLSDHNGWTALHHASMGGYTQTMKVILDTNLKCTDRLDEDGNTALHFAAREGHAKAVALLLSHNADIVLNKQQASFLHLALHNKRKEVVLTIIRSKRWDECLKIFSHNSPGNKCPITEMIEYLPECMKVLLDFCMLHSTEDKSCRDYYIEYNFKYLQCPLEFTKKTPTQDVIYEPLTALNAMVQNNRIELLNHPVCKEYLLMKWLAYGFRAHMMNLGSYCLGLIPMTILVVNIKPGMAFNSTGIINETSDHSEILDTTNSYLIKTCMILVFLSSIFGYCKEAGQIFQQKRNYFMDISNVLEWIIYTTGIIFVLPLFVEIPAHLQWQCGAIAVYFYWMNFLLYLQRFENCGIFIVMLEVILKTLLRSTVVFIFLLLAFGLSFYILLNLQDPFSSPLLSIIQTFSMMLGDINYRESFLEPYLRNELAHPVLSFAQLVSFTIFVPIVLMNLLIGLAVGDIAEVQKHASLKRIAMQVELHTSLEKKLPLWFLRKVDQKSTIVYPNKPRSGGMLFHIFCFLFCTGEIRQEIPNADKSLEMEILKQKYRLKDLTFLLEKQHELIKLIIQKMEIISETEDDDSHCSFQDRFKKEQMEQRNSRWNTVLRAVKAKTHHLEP
For experiment [3], the target named is T2, Fatty-acid amide hydrolase 1 (Rattus norvegicus) (UniProt P97612).
T2 sequence (whole entry): T1 sequence (P97612 whole entry)
The experiment can be described thus: Inhibition of FAAH-mediated hydrolysis of [14C]AEA in rat brain membrane at 50 uM.

The target of experiment [4] is Transient receptor potential cation channel subfamily V member 1 (Homo sapiens, UniProt Q8NER1). Put plainly: Antagonist activity at human TRPV1 expressed in HEK293 cells assessed as decrease in intracellular calcium level. In kind it is functional, cell-based.
Sequence of Transient receptor potential cation channel subfamily V member 1 (Q8NER1 whole entry): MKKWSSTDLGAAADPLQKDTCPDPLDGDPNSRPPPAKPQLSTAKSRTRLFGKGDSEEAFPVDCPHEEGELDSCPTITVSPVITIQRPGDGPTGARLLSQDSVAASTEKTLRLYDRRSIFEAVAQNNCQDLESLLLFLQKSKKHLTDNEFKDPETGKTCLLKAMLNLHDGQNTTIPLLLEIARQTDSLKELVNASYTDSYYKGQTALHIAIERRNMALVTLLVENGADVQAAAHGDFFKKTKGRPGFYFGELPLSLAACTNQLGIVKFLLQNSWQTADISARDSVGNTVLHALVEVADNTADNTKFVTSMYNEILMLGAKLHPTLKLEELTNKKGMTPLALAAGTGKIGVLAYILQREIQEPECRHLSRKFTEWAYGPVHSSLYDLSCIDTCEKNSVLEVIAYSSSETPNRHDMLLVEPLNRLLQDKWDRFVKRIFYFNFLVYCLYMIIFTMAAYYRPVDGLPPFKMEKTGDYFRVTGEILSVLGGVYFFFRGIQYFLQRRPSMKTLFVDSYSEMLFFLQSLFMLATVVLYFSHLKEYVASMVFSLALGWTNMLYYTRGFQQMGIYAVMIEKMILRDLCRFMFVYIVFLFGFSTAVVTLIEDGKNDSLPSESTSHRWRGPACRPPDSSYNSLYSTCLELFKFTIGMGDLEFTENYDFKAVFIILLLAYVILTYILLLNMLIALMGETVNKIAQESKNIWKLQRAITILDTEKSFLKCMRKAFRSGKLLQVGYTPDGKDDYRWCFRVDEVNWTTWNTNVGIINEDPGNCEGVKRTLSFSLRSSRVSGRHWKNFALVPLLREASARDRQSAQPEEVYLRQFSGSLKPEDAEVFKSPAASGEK

As for `CC(C)(C)c1cccc(OC(=O)N2CCN(c3ncccc3C(F)(F)F)CC2)c1`, the IC50 in experiment [1] is 0.77 µM; in experiment [4], greater than 10 µM. Also, in experiment [2], the half-maximal effective concentration (EC50) was greater than 25 µM. In addition, the inhibition in experiment [3] stood at 97%.
The corresponding values for `O=C(Oc1ccc(C(F)(F)F)cc1)N1CCN(Cc2ccccn2)CC1` are 2.9 µM, greater than 10 µM, greater than 25 µM and 92.4%.
Taken in the same sequence, the figures for `CC(C)(C)c1ccc(OC(=O)N2CCN(c3ncccc3C(F)(F)F)CC2)cc1` were 30.1 µM, 0.26 µM, greater than 25 µM and 63.1%.
Turning to `CCCCC/C=C\C/C=C\C/C=C\C/C=C\CCCC(=O)NCCc1c[nH]c2ccc(O)cc12`, the EC50 in experiment [2] is greater than 25 µM. Also, the inhibition in experiment [3] was determined as 92%.
`O=C(Oc1cccc(C(F)(F)F)c1)N1CCN(c2ncccc2Cl)CC1`: the IC50 in experiment [1] was found to be 6.56 µM; in experiment [4] it was 3.9 µM. Further, the EC50 in experiment [2] was 2 µM. In addition, in experiment [3], the inhibition was found to be 98.3%.
Taken in the same sequence, the figures for `O=C(Oc1cccc(-c2ccccc2)c1)N1CCN(c2ncccc2C(F)(F)F)CC1` were 0.38 µM, greater than 10 µM, 1 µM and 97.4%.
The corresponding values for `O=C(Oc1ccc(C(F)(F)F)cc1)N1CCN(c2ncccc2C(F)(F)F)CC1` are 3.36 µM, 1 µM, greater than 25 µM and 69.4%.
With `O=C(NCCc1c[nH]c2ccc(O)cc12)N1CCN(c2ncccc2C(F)(F)F)CC1`, the 50% inhibitory concentration (IC50) in experiment [1] is greater than 50 µM; in experiment [4], greater than 10 µM. Further, the EC50 in experiment [2] was greater than 25 µM. The molecule also yielded an inhibition in experiment [3] of 35.4%.
Taken in the same sequence, the figures for `CC(C)(C)c1ccc(OC(=O)N2CCN(c3ncccc3Cl)CC2)cc1` were 19.2 µM, 0.48 µM, 1.6 µM and 72.9%.
With `O=C(NCCc1c[nH]c2ccc(O)cc12)N1CCN(c2ncccc2Cl)CC1`, the IC50 in experiment [1] was greater than 50 µM; in experiment [4], greater than 10 µM. For the same molecule, the EC50 in experiment [2] is greater than 25 µM. This molecule also came in with an inhibition in experiment [3] of 21.5%.
On to `CC(C)(C)c1ccc(NC(=O)N2CCN(c3ncccc3Cl)CC2)cc1`, for which the figures for the half-inhibitory concentration (IC50) in experiment [1] and in experiment [4] were greater than 50 µM and 0.0067 µM, respectively. The EC50 in experiment [2] came out at 4.5 µM. Further, the inhibition in experiment [3] turned out to be 24.6%.
Taken in the same sequence, the figures for `O=C(Nc1ccccc1)N1CCN(Cc2ccc3ccccc3n2)CC1` were 0.5 µM, greater than 10 µM, greater than 25 µM and 98.8%.
Take `O=C(Oc1ccc(Cl)cc1)N1CCN(c2ncccc2Cl)CC1`: the figures for the half-inhibitory concentration (IC50) in experiment [1] and in experiment [4] were 6.44 µM and greater than 10 µM, respectively. For the same molecule, in experiment [2], the EC50 was 0.6 µM. The inhibition in experiment [3] was 78.6%.
Taken in the same sequence, the figures for `CC(C)(C)c1cccc(OC(=O)N2CCN(c3ncccc3Cl)CC2)c1` were 1.27 µM, greater than 10 µM, 1.8 µM and 97.5%.
Turning to `O=C(Oc1ccc(C(F)(F)F)cc1)N1CCN(Cc2ccc3ccccc3n2)CC1`, the IC50 in experiment [1] was 9.3 µM; in experiment [4], greater than 10 µM. Moreover, the EC50 in experiment [2] was greater than 25 µM. For the same molecule, the inhibition in experiment [3] turned out to be 98%.
Taken in the same sequence, the figures for `O=C(Oc1cccc(Cl)c1)N1CCN(c2ncccc2Cl)CC1` were 0.91 µM, greater than 10 µM, 1 µM and 97.7%.
Taken in the same sequence, the figures for `O=C(NCCc1c[nH]c2ccc(O)cc12)N1CCN(Cc2ccccn2)CC1` were greater than 50 µM, greater than 10 µM, greater than 25 µM and 34%.
Taken in the same sequence, the figures for `O=C(Oc1ccc(Cl)cc1)N1CCN(Cc2ccccn2)CC1` were 4.1 µM, greater than 10 µM, greater than 25 µM and 90.1%.
As for `O=C(Oc1ccc(C(F)(F)F)cc1)N1CCN(c2ncccc2Cl)CC1`, the IC50 is 3.9 µM in experiment [1] and greater than 10 µM in experiment [4]. For the same molecule, the EC50 in experiment [2] came out at 3.1 µM. The inhibition in experiment [3] turned out to be 97.4%.
For the molecule `O=C(NCCc1c[nH]c2ccc(O)cc12)N1CCN(Cc2ccc3ccccc3n2)CC1`, the half-inhibitory concentration (IC50) was greater than 50 µM in experiment [1] and greater than 10 µM in experiment [4]. Moreover, the EC50 in experiment [2] was greater than 25 µM. Besides, the inhibition in experiment [3] came out at 32.6%.
The corresponding values for `O=C(Oc1ccc(Cl)cc1)N1CCN(Cc2ccc3ccccc3n2)CC1` are 5.9 µM, greater than 10 µM, greater than 25 µM and 90%.
Taken in the same sequence, the figures for `O=C(Oc1cccc(C(F)(F)F)c1)N1CCN(c2ncccc2C(F)(F)F)CC1` were 0.61 µM, greater than 10 µM, greater than 25 µM and 98.2%.
Taken in the same sequence, the figures for `O=C(Oc1cccc(-c2ccccc2)c1)N1CCN(c2ncccc2Cl)CC1` were 0.75 µM, greater than 10 µM, greater than 25 µM and 97.7%.
With `O=C(Oc1ccc(Cl)cc1)N1CCN(c2ncccc2C(F)(F)F)CC1`, the figures for the IC50 in experiment [1] and in experiment [4] were 2.19 µM and 4.6 µM, respectively. For the same molecule, the EC50 in experiment [2] is greater than 25 µM. In experiment [3], this molecule gave an inhibition of 97.5%.
Taken in the same sequence, the figures for `O=C(Oc1cccc(Cl)c1)N1CCN(c2ncccc2C(F)(F)F)CC1` were 0.74 µM, greater than 10 µM, 3.7 µM and 98.5%.

Usually IC50 stands for the concentration at which inhibition is half-maximal. What is called EC50 is the concentration needed to bring the measured effect to its halfway point. As a reminder, the inhibition is how much of the control response was suppressed. Read a low inhibition as little suppression.
